# Experimental data as given in patent US5583104A, “Treatment of proliferation of bile duct epithelium” (Mayo Foundation for Medical Research and Education, priority 1993, dated 1996).
# System: human cholangiocarcinoma cell line SK-ChA-1
# Experiment: Anti-proliferative MTT assay on human cholangiocarcinoma cell line SK-ChA-1
# Format: cell-based
# Settings: for inhibiting the growth of the human cholangiocarcinoma cell line: FIGS. 1 and 2, both experiments, non-dose dependent; for Percent Protection, Day 8: first experiment (Table I); for Percent Protection Day 4: second experiment (Table II)
# Procedure: The human cholangiocarcinoma cell line SK-ChA-1 was grown from malignant ascites of a patient with primary adenocarcinoma of the extrahepatic biliary tree. See Knuth, et al. J. of Hepatology 1:579 (1985), hereby incorporated by reference.
# SK-ChA-1 cells were plated (100 μl) into 96-well culture plates (Falcon) at a density of 50,000 cells/ml in Dulbecco's modified Eagle's medium (DMEM/HAMSF12 (50:50)) with 2% fetal calf serum (FCS, Hyclone) and antibiotics (penicillin 100 IU/ml, streptomycin 100 μg/ml and amphotericin B 2.5 μg/ml). After 18 hours, the medium was replaced with fresh medium with or without the two test drugs, natural somatostatin-14 and the somatostatin agonist octreotide. The experiments were performed in triplicate. Wells without the addition of any test drug served as normal controls. All media, with the appropriate concentration of test drug, were changed every two days.
# The amount of viable cells were assayed every two days using 3-(4,5-[…])-2,5-diphenyl tetrazolium (MTT) according to method published by Tada, J. Immunol. Meth. 93:157 (1986), hereby incorporated by reference. Optical density was read by a 96-well automatic microplate reader (molecular Devices) at a test wavelength of 570 nm and a reference wavelength of 630 nm. An experiment had validated the correlation of the MTT assay (r=0.975, p=0.004) with a wide range of cell concentrations (3,000 to 330,000 cells/ml) counted with the hemocytometer. Cell proliferation curves with respect to time and test drug concentration were plotted with control wells as the baseline for comparison.
# Two experiments were performed using this assay. […] The second experiment was performed at concentrations of 10^-5 M to 10^-10 M (in one log increments) and assayed every two days until day 8.
# [1] = drug concentration 1 × 10^-5 M, MTT viable cells vs control wells
# [2] = drug concentration 1 × 10^-10 M
Compound,inhibiting the growth of the human cholangiocarcinoma cell line,"Percent Protection, Day 8 [1]","Percent Protection, Day 8 (drug concentration 1 × 10^-6 M)","Percent Protection, Day 8 (drug concentration 1 × 10^-7 M)","Percent Protection, Day 8 (drug concentration 1 × 10^-8 M)",Percent Protection Day 4 (drug concentration 1 × 10^-5 M),Percent Protection Day 4 (drug concentration 1 × 10^-6 M),Percent Protection Day 4 (drug concentration 1 × 10^-7 M),Percent Protection Day 4 (drug concentration 1 × 10^-8 M),Percent Protection Day 4 (drug concentration 1 × 10^-9 M),Percent Protection Day 4 [2]
"C[C@@H](O)[C@@H]1NC(=O)[C@H](CCCCN)NC(=O)[C@@H](Cc2c[nH]c3ccccc23)NC(=O)[C@H](Cc2ccccc2)NC(=O)[C@@H](NC(=O)[C@H](N)Cc2ccccc2)CSSC[C@@H](C(=O)N[C@H](CO)[C@@H](C)O)NC1=O [Octreotide, H-D-Phe-Cys-Phe-D-Trp-Lys-Thr-Cys-threoninol]",effective in inhibiting the growth,79.1%,92.2%,78.4%,61.0%,62.6%,52.9%,44.4%,46.8%,61.7%,50.4%
C[C@H](N)C(=O)NCC(=O)N[C@H]1CSSC[C@@H](C(=O)O)NC(=O)[C@H](CO)NC(=O)[C@H]([C@@H](C)O)NC(=O)[C@H](Cc2ccccc2)NC(=O)[C@H]([C@@H](C)O)NC(=O)[C@H](CCCCN)NC(=O)[C@H](Cc2c[nH]c3ccccc23)NC(=O)[C@H](Cc2ccccc2)NC(=O)[C@H](Cc2ccccc2)NC(=O)[C@H](CC(N)=O)NC(=O)[C@H](CCCCN)NC1=O [Somatostatin],effective in inhibiting the growth,94.9%,66.8%,89.9%,,54.3%,47.5%,42.6%,50.2%,50.4%,62.3%
